Source: patent publication US20090305993A1, “METHODS AND COMPOSITION FOR THE TREATMENT OF GASTROINTESTINAL DISORDERS” (IRONWOOD PHARMACEUTICALS, INC., priority 2006, published 2009)
Where a SMILES comes first, the peptide text is derived from it. Bridges are numbered along the chain shown (N, C = ends).

Assays:
[1] = oral bioavailability in mice, radioimmunoassay (RIA); conditions: female, CD-1, mouse, in vivo
Description: Oral bioavailability was also determined using a radioimmunoassay (RIA) detection method. Female CD-1 mice (Charles River, Wilmington, Mass.) weighing approximately 25 g (7-8 weeks old) or female CD rats (Charles River, Wilmington, Mass.) weighing approximately 153 g were included in this study. Monoclonal antibody, 20C1 (Brandwein et al. 1985 Infect Immun. 47:242-246), which recognizes SEQ ID NO:7 and 1251 labeled—SEQ ID NO:7, a labeled tracer, were used in these experiments. The labeled tracer was purified by HPLC using a Waters C-18u Bondapak® column (25 cm) previously equilibrated with 10 mM ammonium acetate pH 5.8. […] Blood was drawn from all dosed animals by retro-orbital eye bleeding at specific intervals and test compound levels were analyzed by radioimmunoassay (RIA). […] Radioactivity was measured in a LS 6500 scintillation counter (Beckman-Coulter). The binding efficiency is defined as the percent radioactivity in the B0 sample compared to the input counts. The percent bound in each sample was calculated by the equation: […]
A standard curve was prepared by plotting % B/B0 as a function of the log SEQ ID NO:3 concentration. […] The area under the curve from T=0 to 4 hours (AUC0-4h) was calculated by the software for both p.o. and i.v. dosed animals. […] Oral Bioavailability (F) is calculated using the equation: […]

[2] = stability in simulated gastric fluid (SGF) pH 1; type: in vitro ADME; conditions: pH 1, 37° C., up to 3 h
Description: All samples were analyzed by LC/MS
The reference control sample was diluted 10-fold (1000 μL volume) in distilled water for a final concentration of 10 μM and chilled on ice. At each time point, samples were diluted 10-fold (1000 μL volume) in distilled water for an expected concentration of 10 μM, and chilled on ice, until analysis.

[3] = system: healthy subjects; assay: seven-day oral dosing study in humans, bowel habits; type: in vivo, human
Description: Seven daily doses of 30, 100, 300, or 1000 μg of chemically synthesized SEQ ID NO:3 were given to 48 healthy subjects. SEQ ID NO:3 or placebo (vehicle) was administered orally in 5.0 mL 50 mM phosphate buffer (pH 6.0) plus 3×20 mL water rinses and 175 mL water after at least a 10-hour fast. In each dosing group, 8 subjects were randomized to receive SEQ ID NO:3 and 4 subjects were randomized to receive placebo. […] The Mean Ease of Passage (FIG. 15d) of stools was tested for subjects treated with 30-1000 μg SEQ ID NO:3.

With C[C@@H]1NC(=O)[C@@H]2CCCN2C(=O)[C@H](CC(N)=O)NC(=O)[C@@H]2CSSC[C@H](N)C(=O)N[C@H]3CSSC[C@H](NC1=O)C(=O)N[C@@H]([C@@H](C)O)C(=O)NCC(=O)N[C@H](C(=O)N[C@@H](Cc1ccc(O)cc1)C(=O)O)CSSC[C@H](NC(=O)[C@H](Cc1ccc(O)cc1)NC(=O)[C@H](CCC(=O)O)NC3=O)C(=O)N2 [SEQ ID NO:3] (H-CCEYCCNPACTGCY-OH; disulfide 1-6, 2-10, 5-13; N-terminus and C-terminus assumed) the AUC ([1]; 8 mg/kg oral, read-out: AUCp.o.,(0-4h)) was ≤ 11.5 ng·h/mL, the bioavailability ([1]; oral, 8 mg/kg, over 4 hours, read-out: bioavailability (F)) was ≤ 0.04% and the “Cleavage of SEQ ID NO: 3 by proteolytic substance” value [2] was “not detectable”. For the same molecule, the “Mean Ease of Passage of stools, baseline versus treatment, placebo versus SEQ ID NO:3” value ([3]; 1000 μg dose group, FIG. 15e) was “greatest difference”, the “Mean Stool Weight” value ([3]; seven daily oral doses 30-1000 μg, higher doses, FIG. 15C) was “increase” and the “Mean Stool Frequency (stools per week)” value ([3]; seven daily oral doses 30-1000 μg, higher doses, FIG. 15b) was “increase”.
